From patent publication US20230348454A1, “COMPOUNDS AS MODULATORS OF BIS-PHOSPHOGLYCERATE MUTASE FOR THE TREATMENT OF SICKLE CELL DISEASE” (Genzyme Corporation, priority 2020, published 2023)

target: T1, hBPGM (Homo sapiens, UniProt P07738); assay: BPGM synthase assay; assay type: biochemical; details: Table 6; read-out: huBPGM: synthase Enzyme IC50
T1 sequence (P07738 1-259): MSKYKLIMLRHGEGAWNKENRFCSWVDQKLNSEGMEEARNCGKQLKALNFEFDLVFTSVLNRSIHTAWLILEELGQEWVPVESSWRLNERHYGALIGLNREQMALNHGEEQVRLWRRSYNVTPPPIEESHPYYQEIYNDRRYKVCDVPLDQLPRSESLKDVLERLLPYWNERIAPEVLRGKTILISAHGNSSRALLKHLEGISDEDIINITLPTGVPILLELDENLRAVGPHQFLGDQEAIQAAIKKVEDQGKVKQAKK
Experimental: The following materials were used in this assay: deionized water; Bisphosphoglycerate mutase (BPGM; Standard Buffer: 50 mM Tris, 0.01% Tween 20, pH 7.4); BPGM Reaction Buffer (50 mM Tris, 0.01% Tween 20, 3.23 mM KH2PO4, pH 7.4); dithiothreitol (DTT; Stock solution: 100 mM in Standard Buffer); 384-Well Black Assay Plate (Corning, P/N 3575); DMSO; BPGM Stock Solution (500 nM in BPGM Standard Buffer); Glyceraldehyde 3-phosphate dehydrogenase (GAPDH; Stock Solution: 40 U/mL in 20 mM Tris-HCL Buffer with 20% Glycerol, 1 mM EDTA, 1 mM DTT); Glyceraldehyde 3-phosphate (GAP; Stock Solution: 20 mM in BPGM Standard Buffer); 3-PG Stock Solution (500 μM in BPGM Standard Buffer); Nicotinamide adenine dinucleotide (NAD; Stock Solution: 50 mM in BPGM Standard Buffer); Koningic Acid (1 mM Stock in DMSO); Resazurin Stock Solution (10 mM in DMSO); Diaphorase Stock Solution (40 U/mL in BPGM Standard Buffer); DTT Reaction Buffer (1 mM DTT in BPGM Reaction Buffer); Enzyme Solution (5 nM BPGM, 0.4 U/mL GAPDH in DTT Reaction Buffer); GAPDH Solution (0.4 U/mL GAPDH in DTT Reaction Buffer); Substrate Solution (2 mM NAD, 20 μM 3PG, 800 μM GAP in DTT Reaction Buffer); and Resazurin Solution (5 U/mL Diaphorase, 500 μM Resazurin in BPGM Standard Buffer).
To the assay plate was added Enzyme Solution (20 uL) to columns 2-22 and 24 of the assay plate. To columns 1 and 23 was added GAPDH Solution (20 uL). A separate compound plate was prepared at the desired concentrations and all wells were normalized with 5% DMSO. The compound plate was incubated for 30 minutes at RT. Next, the substrate solution (20 μL) was dispensed to all reaction wells and the plate was incubated for 60 minutes at RT. Koningic acid (1 μL) was added and the plate was incubated for 10 minutes at RT. During this time period, the NADH fluorescence was read at ex: 360/em: 460. Next, Resazurin Solution (10 μL) was added to all reaction wells and the plate was incubated for 30 minutes at RT. The resorufin fluorescence was then read at ex:544/em:590.

Compared with `COC(=O)NCc1nc(C)c(-c2csc(-c3ccc(C(=O)NS(C)(=O)=O)cc3)n2)s1` [Example 208], `COC(=O)NCc1nc(C)c(-c2csc(-c3ccc(C(=O)NS(C)(=O)=O)c(O)c3)n2)s1` [Example 206] is 2.2-fold lower in IC50: 3100 nM for the first, 1400 nM for the second.

First: Cc1nc(COc2ccccn2)sc1-c1csc(-c2cc3nn[nH]c3c(F)c2F)n1 [Example 176]
Second: Cc1nc(COc2ccccn2)sc1-c1csc(-c2cc(F)c3[nH]nnc3c2)n1 [Example 100]
The IC50 of the first is 11-fold higher: 3400 nM for the first, 310 nM for the second.

Going from `Cc1nc(COc2ncccn2)sc1-c1cccc(-c2cc[n+]([O-])cc2)n1` [Example 139] to `Cc1nc(COc2ncccn2)sc1-c1cccc(-c2cc(F)c(O)c(C#N)c2F)n1` [Example 231], the IC50 falls from greater than 25000 nM to 87 nM.

Going from `COC(=O)NCc1nc(C)c(-c2csc(-c3cc(O)c(C#N)cc3F)c2)s1` [Example 189] to `COC(=O)NCc1nc(C)c(-c2csc(-c3ccc(O)c(F)c3F)n2)s1` [Example 190], the IC50 rises from 980 nM to 4200 nM (4.3-fold).

Going from `Cc1nc(COC(=O)N2CCN(C)CC2)sc1-c1cccc(-c2cc(F)c3nn[nH]c3c2)n1` [Example 147] to `Cc1nc(COC(=O)N(C)C)sc1-c1cccc(-c2cc(F)c3nn[nH]c3c2)n1` [Example 167], the IC50 falls from 550 nM to 130 nM (4.2-fold).

First: COC(=O)NCc1nc(C)c(-c2csc(-c3ccc(-c4nnn[nH]4)c(O)c3)n2)s1 [Example 213]
Second: COC(=O)NCc1nc(C)c(-c2cccc(-c3cc(F)c(O)c(F)c3F)n2)s1 [Example 171]
The IC50 of the first is 5.1-fold lower: 160 nM for the first, 810 nM for the second.

Compared with `Cc1nc(COCC(=O)N(C)C)sc1-c1csc(-c2cc(F)c(O)c(F)c2F)n1` [Example 160], `Cc1nc(CNC(=O)N(C)C)sc1-c1cccc(-c2cc(F)c(O)c(F)c2F)n1` [Example 28] is 3.5-fold higher in IC50: 460 nM for the first, 1600 nM for the second.

Compared with `Cc1nc(COc2ncccn2)sc1-c1csc(-c2cc(F)c3[nH]nnc3c2)c1` [Example 145], `Cc1nc(COc2ccccn2)sc1-c1csc(-c2cc(F)c(O)c(F)c2F)c1` [Example 102] is 2.5-fold higher in IC50: 250 nM for the first, 620 nM for the second.

First: Cc1nc(CNC(=O)C(C)CN(C)C)sc1-c1cccc(-c2cc(F)c3nn[nH]c3c2F)n1 (centres unmarked) [Example 138]
Second: CC(=O)N(C)Cc1nc(C)c(-c2cccc(-c3cc(F)c4nn[nH]c4c3F)n2)s1 [Example 65]
The IC50 of the first is 3.4-fold higher: 960 nM for the first, 280 nM for the second.

Going from `Cc1ccnc(OCc2nc(C)c(-c3cccc(-c4cc(F)c5nn[nH]c5c4)n3)s2)n1` [Example 153] to `Cc1nc(COCC(C)(C)C)sc1-c1cccc(-c2cc(F)c3nn[nH]c3c2F)n1` [Example 234], the IC50 rises from 81 nM to 1300 nM (16-fold).

Going from `Cc1nc(C)c(-c2csc(-c3cc(O)c(NS(=O)(=O)c4ccccc4)cc3F)n2)s1` [Example 180] to `Cc1nc(NC(=O)OC(C)(C)C)sc1-c1cccc(-c2cc(F)c3[nH]nnc3c2F)n1` [Example 30], the IC50 falls from greater than 25000 nM to 200 nM. The second is the more potent here.

target: T2, human Bisphosphoglycerate mutase (hBPGM) (Homo sapiens, UniProt P07738); assay: BPGM phosphatase assay; assay type: biochemical; details: Table 4; read-out: hBPGM Phosphatase EC50
T2 sequence (P07738 1-259): T1 sequence (P07738 1-259)
Experimental: The following materials were used in this assay: Tris buffer (50 mM Tris, 0.01% Tween 20, pH 7.4); cyclohexylammonium salt of 2,3-BPG (stock solution of 500 mM in ultapure distilled water; human Bisphosphoglycerate mutase (hBPGM; stock solution of 110 μM in Standard Buffer); 3-Phosphoglyceric acid (3-PG; stock solution of 100 mM in ultrapure distilled water); 384-Well Polystyrene Plates (Fisherbrand™, Catalog No.: 12-566-625); BIOMOL GREEN REAGENT (Enzo life sciences, BML-AK111-0250); and 1 mM DMSO stock of exemplary compounds.
A 3-PG enzyme mix solution (final enzyme concentration 62.5 nM, 3-PG concentration at 50 µM, 14.5 uL) was added to onto a 384-well clear plate. Solutions of the test compounds were then added to the plate and the DMSO content was normalized across the plate. The plate was incubated at RT for 15 min. Next, the substrate 2,3-BPG (5 μL) was added to all the wells, and the plate was sealed and incubated for 24 hr at RT. After incubation, BIOMOL green dye (40 μL) was added to all the wells, the plate was shaken to mix, and the plate was incubated at RT for 20-30 min. Absorbance measurements were recorded at 620 nm.

`Cc1nc(COc2cccnn2)sc1-c1csc(-c2cc(F)c3[nH]nnc3c2)n1` [compound 7] showed an EC50 of 55 nM.

same assay, conditions: Table 6; read-out: huBPGM: phosphatase Enzyme EC50

First: COC(=O)NCc1nc(C)c(-c2csc(-c3ccc(C(=O)NS(C)(=O)=O)cc3)n2)s1 [Example 208]
Second: COC(=O)NCc1nc(C)c(-c2csc(-c3ccc(C(=O)NS(C)(=O)=O)c(O)c3)n2)s1 [Example 206]
The EC50 of the first is 13-fold higher: 16000 nM for the first, 1200 nM for the second. The second is the more potent here.

Going from `Cc1nc(COc2ccccn2)sc1-c1csc(-c2cc3nn[nH]c3c(F)c2F)n1` [Example 176] to `Cc1nc(COc2ccccn2)sc1-c1csc(-c2cc(F)c3[nH]nnc3c2)n1` [Example 100], the EC50 rises from 20 nM to 57 nM (2.9-fold).

First: Cc1nc(COc2ncccn2)sc1-c1cccc(-c2cc[n+]([O-])cc2)n1 [Example 139]
Second: Cc1ccnc(OCc2nc(C)c(-c3cccc(-c4cc(F)c5nn[nH]c5c4)n3)s2)n1 [Example 153]
The EC50 of the first is higher: greater than 25000 nM for the first, 60 nM for the second. The second is the more potent here.

Compared with `COC(=O)NCc1nc(C)c(-c2csc(-c3cc(O)c(C#N)cc3F)c2)s1` [Example 189], `COC(=O)NCc1nc(C)c(-c2csc(-c3ccc(O)c(F)c3F)n2)s1` [Example 190] is 11-fold higher in EC50: 310 nM for the first, 3300 nM for the second. The first is the more potent here.

Going from `Cc1nc(COC(=O)N2CCN(C)CC2)sc1-c1cccc(-c2cc(F)c3nn[nH]c3c2)n1` [Example 147] to `Cc1nc(COC(=O)N(C)C)sc1-c1cccc(-c2cc(F)c3nn[nH]c3c2)n1` [Example 167], the EC50 falls from 490 nM to 75 nM (6.5-fold). The second is the more potent here.

First: COC(=O)NCc1nc(C)c(-c2csc(-c3ccc(-c4nnn[nH]4)c(O)c3)n2)s1 [Example 213]
Second: COC(=O)NCc1nc(C)c(-c2cccc(-c3cc(F)c(O)c(F)c3F)n2)s1 [Example 171]
The EC50 of the first is 32-fold lower: 60 nM for the first, 1900 nM for the second.

Compared with `Cc1nc(COCC(=O)N(C)C)sc1-c1csc(-c2cc(F)c(O)c(F)c2F)n1` [Example 160], `Cc1nc(COc2ccccn2)sc1-c1csc(-c2cc(F)c(O)c(F)c2F)c1` [Example 102] is 12-fold lower in EC50: 520 nM for the first, 45 nM for the second. The second is the more potent here.

Compared with `Cc1nc(COc2ncccn2)sc1-c1csc(-c2cc(F)c3[nH]nnc3c2)c1` [Example 145], `Cc1nc(COc2cccnn2)sc1-c1csc(-c2cc(F)c3[nH]nnc3c2)n1` [compound 7] is 1.8-fold higher in EC50: 30 nM for the first, 55 nM for the second. The first is the more potent here.

First: Cc1nc(CNC(=O)C(C)CN(C)C)sc1-c1cccc(-c2cc(F)c3nn[nH]c3c2F)n1 (centres unmarked) [Example 138]
Second: Cc1nc(COc2ncc(Cl)cn2)sc1-c1cccc(-c2cc(F)c3nn[nH]c3c2)n1 [Example 140]
The EC50 of the first is higher: greater than 25000 nM for the first, 30 nM for the second.
